Assays:
Assay in all cases: relative viability (nuclei count vs DMSO), 5 days (fraction); higher = more cells survive
NCI-H650 = tested on: NCI-H650
How it was run: (§1)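 Lung cancer cell lines in 1536-well plates were dosed by pin tool the day after seeding, either with one drug alone or with a fixed anchor-drug dose plus five library-drug doses (not always all listed) in √10 steps. After 5 days, cells were fixed and their nuclei stained in one step (final 0.05% Triton X-100, 1% formaldehyde, 1 ug/ml Hoechst), then counted on 4× images. Relative viability is the nuclei count in treated wells divided by that in vehicle wells. Values are medians of duplicate plates.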

NCI-H23 = tested on: NCI-H23
How it was run: as §1

LOU-NH91 = tested on: LOU-NH91
How it was run: as §1

NCI-H838 = tested on: NCI-H838
How it was run: as §1

NCI-H1395 = tested on: NCI-H1395
How it was run: as §1

NCI-H2009 = tested on: NCI-H2009
How it was run: as §1

NCI-H1666 = tested on: NCI-H1666
How it was run: as §1

NCI-H727 = tested on: NCI-H727
How it was run: as §1

NCI-H596 = tested on: NCI-H596
How it was run: as §1

HARA = tested on: HARA
How it was run: as §1

NCI-H441 = tested on: NCI-H441
How it was run: as §1

LCLC-103H = tested on: LCLC-103H
How it was run: as §1

NCI-H2126 = tested on: NCI-H2126
How it was run: as §1

EMC-BAC-2 = tested on: EMC-BAC-2
How it was run: as §1

NCI-H2023 = tested on: NCI-H2023
How it was run: as §1

NCI-H1993 = tested on: NCI-H1993
How it was run: as §1

NCI-H3122 = tested on: NCI-H3122
How it was run: as §1

NCI-H647 = tested on: NCI-H647
How it was run: as §1

HCC-44 = tested on: HCC-44
How it was run: as §1

201T = tested on: 201T
How it was run: as §1

NCI-H2347 = tested on: NCI-H2347
How it was run: as §1

NCI-H2087 = tested on: NCI-H2087
How it was run: as §1

BEN = tested on: BEN
How it was run: as §1

Question: With `C=C1C(=O)O[C@@H](CCCCCCCC)[C@@H]1C(=O)O` [C-75] + Cc1nc(NC(=O)N2CCC[C@H]2C(N)=O)sc1-c1ccnc(C(C)(C)C(F)(F)F)c1 [Alpelisib] (partner 2 µM) as the compound, how does the relative viability (NCI-H650; first compound 0.08 µM) read?
Answer: 1.1

Question: And the relative viability (NCI-H650; first compound 0.253 µM)?
Answer: 0.874

Question: What about the relative viability (NCI-H650; first compound 0.8 µM) of the same compound?
Answer: 1.08

Question: And the relative viability (NCI-H650; first compound 2.53 µM)?
Answer: 1.06

Question: And the relative viability (NCI-H650; first compound 8 µM)?
Answer: 1.04

Question: What about the relative viability (NCI-H23; first compound 0.08 µM) of the same compound?
Answer: 0.546

Question: What about the relative viability (NCI-H23; first compound 0.253 µM) of the same compound?
Answer: 0.818

Question: And the relative viability (NCI-H23; first compound 0.8 µM)?
Answer: 0.565

Question: And the relative viability (NCI-H23; first compound 2.53 µM)?
Answer: 0.618

Question: What about the relative viability (NCI-H23; first compound 8 µM) of the same compound?
Answer: 0.505

Question: And the relative viability (LOU-NH91; first compound 0.08 µM)?
Answer: 0.771

Question: And the relative viability (LOU-NH91; first compound 0.253 µM)?
Answer: 0.643

Question: What about the relative viability (LOU-NH91; first compound 0.8 µM) of the same compound?
Answer: 0.719

Question: What about the relative viability (LOU-NH91; first compound 2.53 µM) of the same compound?
Answer: 0.744

Question: And the relative viability (LOU-NH91; first compound 8 µM)?
Answer: 0.723

Question: What about the relative viability (NCI-H838; first compound 0.08 µM) of the same compound?
Answer: 0.949

Question: What about the relative viability (NCI-H838; first compound 0.253 µM) of the same compound?
Answer: 0.675

Question: What about the relative viability (NCI-H838; first compound 0.8 µM) of the same compound?
Answer: 0.928

Question: And the relative viability (NCI-H838; first compound 2.53 µM)?
Answer: 0.79

Question: What about the relative viability (NCI-H838; first compound 8 µM) of the same compound?
Answer: 0.919

Question: And the relative viability (NCI-H1395; first compound 0.08 µM)?
Answer: 1.05

Question: And the relative viability (NCI-H1395; first compound 0.253 µM)?
Answer: 1.13

Question: And the relative viability (NCI-H1395; first compound 0.8 µM)?
Answer: 1.07

Question: And the relative viability (NCI-H1395; first compound 2.53 µM)?
Answer: 0.868

Question: And the relative viability (NCI-H1395; first compound 8 µM)?
Answer: 1.28

Question: And the relative viability (NCI-H2009; first compound 0.08 µM)?
Answer: 1.17

Question: And the relative viability (NCI-H2009; first compound 0.253 µM)?
Answer: 1.14

Question: What about the relative viability (NCI-H2009; first compound 0.8 µM) of the same compound?
Answer: 1.18

Question: What about the relative viability (NCI-H2009; first compound 2.53 µM) of the same compound?
Answer: 1.14

Question: And the relative viability (NCI-H2009; first compound 8 µM)?
Answer: 1.03

Question: What about the relative viability (NCI-H1666; first compound 0.08 µM) of the same compound?
Answer: 0.908

Question: And the relative viability (NCI-H1666; first compound 0.253 µM)?
Answer: 1.13

Question: What about the relative viability (NCI-H1666; first compound 0.8 µM) of the same compound?
Answer: 0.879

Question: And the relative viability (NCI-H1666; first compound 2.53 µM)?
Answer: 0.987

Question: And the relative viability (NCI-H1666; first compound 8 µM)?
Answer: 0.71

Question: What about the relative viability (NCI-H727; first compound 0.08 µM) of the same compound?
Answer: 0.467

Question: What about the relative viability (NCI-H727; first compound 0.253 µM) of the same compound?
Answer: 0.76

Question: And the relative viability (NCI-H727; first compound 0.8 µM)?
Answer: 0.616

Question: And the relative viability (NCI-H727; first compound 2.53 µM)?
Answer: 0.579

Question: And the relative viability (NCI-H727; first compound 8 µM)?
Answer: 0.688

Question: What about the relative viability (NCI-H596; first compound 0.08 µM) of the same compound?
Answer: 0.51

Question: And the relative viability (NCI-H596; first compound 0.253 µM)?
Answer: 0.663

Question: And the relative viability (NCI-H596; first compound 0.8 µM)?
Answer: 0.476

Question: What about the relative viability (NCI-H596; first compound 2.53 µM) of the same compound?
Answer: 0.525

Question: What about the relative viability (NCI-H596; first compound 8 µM) of the same compound?
Answer: 0.54

Question: What about the relative viability (HARA; first compound 0.08 µM) of the same compound?
Answer: 0.849

Question: And the relative viability (HARA; first compound 0.253 µM)?
Answer: 1

Question: What about the relative viability (HARA; first compound 0.8 µM) of the same compound?
Answer: 0.767

Question: What about the relative viability (HARA; first compound 8 µM) of the same compound?
Answer: 0.883

Question: What about the relative viability (NCI-H441; first compound 0.08 µM) of the same compound?
Answer: 0.762

Question: What about the relative viability (NCI-H441; first compound 0.253 µM) of the same compound?
Answer: 0.734

Question: What about the relative viability (NCI-H441; first compound 0.8 µM) of the same compound?
Answer: 0.577

Question: And the relative viability (NCI-H441; first compound 2.53 µM)?
Answer: 0.589

Question: And the relative viability (NCI-H441; first compound 8 µM)?
Answer: 0.602

Question: And the relative viability (LCLC-103H; first compound 0.08 µM)?
Answer: 0.986

Question: What about the relative viability (LCLC-103H; first compound 0.253 µM) of the same compound?
Answer: 0.94

Question: What about the relative viability (LCLC-103H; first compound 0.8 µM) of the same compound?
Answer: 1.01

Question: What about the relative viability (LCLC-103H; first compound 2.53 µM) of the same compound?
Answer: 0.89

Question: And the relative viability (LCLC-103H; first compound 8 µM)?
Answer: 0.908

Question: What about the relative viability (NCI-H2126; first compound 0.08 µM) of the same compound?
Answer: 0.79

Question: What about the relative viability (NCI-H2126; first compound 0.253 µM) of the same compound?
Answer: 0.826

Question: What about the relative viability (NCI-H2126; first compound 0.8 µM) of the same compound?
Answer: 0.732

Question: What about the relative viability (NCI-H2126; first compound 2.53 µM) of the same compound?
Answer: 0.621

Question: And the relative viability (NCI-H2126; first compound 8 µM)?
Answer: 0.774

Question: And the relative viability (EMC-BAC-2; first compound 0.08 µM)?
Answer: 0.726

Question: And the relative viability (EMC-BAC-2; first compound 0.253 µM)?
Answer: 0.688

Question: And the relative viability (EMC-BAC-2; first compound 0.8 µM)?
Answer: 0.717

Question: And the relative viability (EMC-BAC-2; first compound 2.53 µM)?
Answer: 0.679

Question: What about the relative viability (EMC-BAC-2; first compound 8 µM) of the same compound?
Answer: 0.726

Question: And the relative viability (NCI-H2023; first compound 0.08 µM)?
Answer: 0.637

Question: And the relative viability (NCI-H2023; first compound 0.253 µM)?
Answer: 0.715

Question: And the relative viability (NCI-H2023; first compound 0.8 µM)?
Answer: 0.592

Question: And the relative viability (NCI-H2023; first compound 2.53 µM)?
Answer: 0.419

Question: And the relative viability (NCI-H2023; first compound 8 µM)?
Answer: 0.543

Question: And the relative viability (NCI-H1993; first compound 0.08 µM)?
Answer: 0.694

Question: What about the relative viability (NCI-H1993; first compound 0.253 µM) of the same compound?
Answer: 0.738

Question: And the relative viability (NCI-H1993; first compound 0.8 µM)?
Answer: 0.66

Question: And the relative viability (NCI-H1993; first compound 2.53 µM)?
Answer: 0.637

Question: And the relative viability (NCI-H1993; first compound 8 µM)?
Answer: 0.727

Question: What about the relative viability (NCI-H3122; first compound 0.08 µM) of the same compound?
Answer: 0.767

Question: And the relative viability (NCI-H3122; first compound 0.253 µM)?
Answer: 0.922

Question: And the relative viability (NCI-H3122; first compound 0.8 µM)?
Answer: 0.765

Question: What about the relative viability (NCI-H3122; first compound 8 µM) of the same compound?
Answer: 0.801

Question: What about the relative viability (NCI-H647; first compound 0.08 µM) of the same compound?
Answer: 0.972

Question: What about the relative viability (NCI-H647; first compound 0.253 µM) of the same compound?
Answer: 1.28

Question: And the relative viability (NCI-H647; first compound 2.53 µM)?
Answer: 1

Question: And the relative viability (NCI-H647; first compound 8 µM)?
Answer: 0.643

Question: What about the relative viability (HCC-44; first compound 0.08 µM) of the same compound?
Answer: 0.742

Question: And the relative viability (HCC-44; first compound 0.253 µM)?
Answer: 0.674

Question: And the relative viability (HCC-44; first compound 0.8 µM)?
Answer: 0.719

Question: And the relative viability (HCC-44; first compound 2.53 µM)?
Answer: 0.614

Question: And the relative viability (HCC-44; first compound 8 µM)?
Answer: 0.719

Question: What about the relative viability (201T; first compound 0.08 µM) of the same compound?
Answer: 0.981

Question: And the relative viability (201T; first compound 0.253 µM)?
Answer: 1.08

Question: And the relative viability (201T; first compound 0.8 µM)?
Answer: 1.02

Question: What about the relative viability (201T; first compound 2.53 µM) of the same compound?
Answer: 0.975

Question: What about the relative viability (201T; first compound 8 µM) of the same compound?
Answer: 1.07

Question: What about the relative viability (NCI-H2347; first compound 0.08 µM) of the same compound?
Answer: 1.01

Question: And the relative viability (NCI-H2347; first compound 0.253 µM)?
Answer: 0.987

Question: And the relative viability (NCI-H2347; first compound 0.8 µM)?
Answer: 1.12

Question: And the relative viability (NCI-H2347; first compound 2.53 µM)?
Answer: 0.956

Question: And the relative viability (NCI-H2347; first compound 8 µM)?
Answer: 1.09

Question: What about the relative viability (NCI-H2087; first compound 0.08 µM) of the same compound?
Answer: 1.07

Question: And the relative viability (NCI-H2087; first compound 0.253 µM)?
Answer: 0.921

Question: And the relative viability (NCI-H2087; first compound 0.8 µM)?
Answer: 1.02

Question: And the relative viability (NCI-H2087; first compound 2.53 µM)?
Answer: 0.682

Question: And the relative viability (NCI-H2087; first compound 8 µM)?
Answer: 0.934

Question: And the relative viability (BEN; first compound 0.08 µM)?
Answer: 0.983

Question: And the relative viability (BEN; first compound 0.253 µM)?
Answer: 1.15

Question: What about the relative viability (BEN; first compound 0.8 µM) of the same compound?
Answer: 0.953

Question: What about the relative viability (BEN; first compound 2.53 µM) of the same compound?
Answer: 0.926

Question: What about the relative viability (BEN; first compound 8 µM) of the same compound?
Answer: 0.91

Source: the supplement of paper PMC10307832
